The record followed here is patent EP0664121A1, “Inhibition of ldl oxidation and atherosclerosis” (ELI LILLY AND COMPANY, priority 1993, dated 1995).

Assay [1] concerns Resident macrophages from the mouse peritoneal cavity. Briefly: Macrophage-mediated oxidation (cellular modification) of LDL, TBAR values. The following applies: LDL 1 mg/ml, 24 hrs, media-alone value subtracted. Format: cell-based. Here is the method:
Resident macrophages from the mouse peritoneal cavity were plated at 1 x 10⁶ cells per well in F10 media without serum. […] The wells designated media alone represents LDL incubated overnight on the same plate with F10 media without cells. This value was subtracted from the TBAR values obtained in the presence of resident macrophages and reflects the extent of cellular modification of LDL.

For another assay, the system named is LDL. Briefly: Thiobarbituric acid assay of copper-induced LDL peroxidation. Type of assay: biochemical. The following applies: 250 µg LDL in 1 ml, 5 µM CuSO₄, 5-18 hrs at 37 degrees C. Here is the method:
The thiobarbituric acid assay as described by Schuh et al., (PNAS 75: 3173, 1978) and modified by Morel et al., (Lab Invest 55: 419, 1986) was used to determine the degree of inhibition of LDL peroxidation by estradiol and Compound A of the invention. A 1 ml solution containing 250 micrograms (µg) of LDL with either estradiol or Compound A of the invention in amounts varying from 1-30 µM is incubated for 5-18 hrs at 37 degrees C in the presence of 5 µM CuSO₄. Following incubation, 1 ml of 25% trichloroacetic acid and 1 ml of 1% thiobarbituric acid is added. All samples are boiled for 45 minutes and fluorescence is measured at 515 nm excitation and 553 nm emission wavelengths. (Compound A is a compound of formula 1 wherein R₁ and R₃ are hydrogen, and R₂ is 1-pyrrolidino).

With `C[C@]12CC[C@@H]3c4ccc(O)cc4CC[C@H]3[C@@H]1CC[C@@H]2O` [Estradiol, estradiol, reference compound], the “TBAR Units” value in assay [1] (25 µM compound) was 30 TBAR Units.
Regarding `O=C(c1ccc(OCCN2CCCC2)cc1)c1c(-c2ccc(O)cc2)sc2cc(O)ccc12` [Compound A], the “TBAR Units” value in assay [1] (1 µM compound) came to 129 TBAR Units; in assay [1] (2.5 µM compound), 75 TBAR Units; in assay [1] (5 µm compound), 30 TBAR Units; in the assay on LDL (1µM compound), 142 TBAR UNITS; in the assay with LDL (5µM compound), 109 TBAR UNITS; in the assay on LDL (25µM compound), 78 TBAR UNITS.
